Laboratory results published in article PMC4302242 (Psychopharmacology, 2014).
Non-standard residues stand in square brackets, D forms with d. Residues, ends and D or L forms follow the SMILES beside them.

What was measured:
human TREK-1 channel [1] = target: T1, human TREK-1 channel (Homo sapiens, UniProt O95069); assay: cell-based
Description: (§1) The human-TREK-1/HEK293 cell line (h-TREK-1/HEK) (Moha ou Maati et al. [2011a]) and HEK-IKS cell line (Ducroq et al. [2010]) were grown in the presence of 0.5 mg/mL G418 in Dulbecco’s modified Eagle’s medium supplemented with 10 % (v/v) heat-inactivated fetal bovine serum containing 1 % (v/v) penicillin/streptomycin in an atmosphere of 95 % air/5 % CO2 as previously described (Moha ou Maati et al. [2011a]).
(§2) All electrophysiological experiments were performed on h-TREK-1/HEK cells seeded at a density of 20,000 cells/35 mm dish after 2–6 days of culture. All electrophysiological recordings were performed in whole cell configuration of the patch clamp technique except for IKS measures which were obtained by using the patch clamp perforated configuration (amphotericin B 0.9 mg/mL in the pipette medium) (Moha ou Maati et al. [2011b]). Each current was evaluated by using a RK 400 patch clamp amplifier (Axon Instrument, USA), low-pass filtered at 3 kHz, and digitized at 10 kHz using a 12-bit analog-to-digital converter digidata (1322 series, Axon Instrument, USA). All current amplitudes are expressed in current densities. Results are expressed as mean ± standard error of the mean (SEM). […] The bath solution contained (in mM) 150 NaCl, 5 KCl, 3 MgCl2, 1 CaCl2, and 10 4-(2-hydroxyethyl)piperazine 1- ethane sulfonic acid (HEPES) adjusted to pH 7.4 with NaOH. The pipette solution contained (in mM) 155 KCl, 3 MgCl2, 5 EGTA, and 10 HEPES adjusted to pH 7.2 with KOH. TREK-1 currents were evaluated at room temperature (21–22 °C) in the presence of a cocktail of potassium channel inhibitors (K^+ blockers, 3 mM 4-aminopyridine (4-AP), 10 mM tetraethylammonium (TEA), 10 μM glibenclamide, 100 nM apamin, and 50 nM charybdotoxin). Stimulation protocols and data acquisition were carried out using a microcomputer (Dell Pentium) with a commercial software and hardware (pClamp 8.2). Currents were recorded by voltage clamp steps to membrane potentials of −100 to +60 mV in 20-mV steps applied from a holding potential of −80 mV. The duration of depolarization pulses was 825 ms, and the pulse cycling rate was 5 s. TREK-1 current amplitudes were evaluated at the end of stimulation pulses. Cells were continuously superfused with microperfusion system.
(§3) All experiments were performed on h-TREK-1/HEK cell line in the presence of a mixture of K^+ channels blockers and by using the whole cell configuration of the patch clamp technique. a Control currents (black-filled circles, K^+ blockers) were amplified by the application of 10 μM of arachidonic acid (white-filled circles, K^+ blockers + AA).

human-IKS current = human-IKS current (Homo sapiens, UniProt P51787); conditions: 10 μM
Description: as §1
All electrophysiological recordings were performed in whole cell configuration of the patch clamp technique except for IKS measures which were obtained by using the patch clamp perforated configuration (amphotericin B 0.9 mg/mL in the pipette medium) (Moha ou Maati et al. [2011b]). Each current was evaluated by using a RK 400 patch clamp amplifier (Axon Instrument, USA), low-pass filtered at 3 kHz, and digitized at 10 kHz using a 12-bit analog-to-digital converter digidata (1322 series, Axon Instrument, USA). All current amplitudes are expressed in current densities. Results are expressed as mean ± standard error of the mean (SEM). […] The bath solution contained (in mM) 150 NaCl, 5 KCl, 3 MgCl2, 1 CaCl2, and 10 4-(2-hydroxyethyl)piperazine 1- ethane sulfonic acid (HEPES) adjusted to pH 7.4 with NaOH. The pipette solution contained (in mM) 155 KCl, 3 MgCl2, 5 EGTA, and 10 HEPES adjusted to pH 7.2 with KOH. […] Stimulation protocols and data acquisition were carried out using a microcomputer (Dell Pentium) with a commercial software and hardware (pClamp 8.2). […] Cells were continuously superfused with microperfusion system.
IKS currents were activated by voltage clamp steps of membrane potentials from −100 to +100 mV in 20-mV steps applied from a holding potential of −80 mV. Tail currents were generated by repolarization to −40 mV. Duration of both depolarization and repolarization pulses was 2.4 s, and the pulse cycling rate was 10 s. […] The amplitudes of IKS and IKR currents were calculated at both the end of the first pulse and the peak of the tail pulse.

C57Bl/6J mice [2] = conditions: water bath 48 °C, 10 μg/kg i.v. 30 min before the test, n = 10 per group, two determinations averaged, mean ± SEM; saline 12.75 ± 0.96 s
Description: The tail was immersed in a water bath at 48 °C until withdrawal was observed (cutoff time 30 s). Two separate withdrawal latency time determinations were averaged (Alloui et al. [2006]).
For each mouse, the time to withdraw its tail immersed in a water bath at 48 °C was measured twice and averaged.

C57Bl/6J mice [3] = conditions: kaïnate 25 mg/kg i.p.
Description: Kaïnate solutions were prepared in a solution of 140 mM NaCl (saline solution).
Mice (n = 10 per group) were monitored during 2 h for onset and extent of seizures. Six levels of seizure severity were defined: (1) immobility, (2) head/neck movements, (3) clonic unilateral activity, (4) clonic bilateral activity, (5) generalized convulsions, and (6) death. Seizure severity was blindly scored (Tsirka et al. [1995]). The seizure index was calculated by averaging the points for seizure activity in each group (n = 10 per treatment).

C57Bl/6J mice [4] = conditions: for FST immobility time, subchronic treatment: 10 μg/kg i.v. once a day for 4 days, test on day 5, mean ± SEM, saline 161.80 ± 8.12 s; for FST immobility time, acute treatment: 10 μg/kg single i.v. bolus, 30 min before the test, saline 166.13 ± 5.54 s; for FST immobility time, acute treatment / FST immobility time 1 h after injection (action duration): n = 10, mean ± SEM; for FST immobility time 1 h after injection (action duration): naïve mice at each time; for FST immobility time 1 h after injection (action duration) / FST immobility time 16 h after injection (action duration): saline 170.3 ± 4.5 s (spadin series), 162.7 ± 4.7 s (analog series); for FST immobility time 16 h after injection (action duration): naïve mice, mean ± SEM
Description: Naïve male C57Bl/6J mice from 7 to 9 weeks old were used in all experiments (Janvier Laboratory, Saint Berthevin, France). Mice were housed (10 animals per cage) under a 12:12 light–dark cycle (light on at 8:00 am) in a ventilated room at a temperature of 22 ± 1 °C. Animals had free access to water and food (A03; SAFE, Augy, France). All experiments were conducted according to policies on the care and use of laboratory animals of the Society for Neuroscience and also with respect to national laws on animal use.
(§4) For acute treatment, drugs were administered in a single 100-μL bolus 30 min prior to the beginning of the behavioral tests. For subchronic treatment, drugs were injected during four consecutive days, and behavioral tests were performed on day 5, without additional injection.
The animals were individually placed in a non-escapable cylinder (height 30 cm, diameter 15 cm) filled with 15-cm water at 22 ± 1 °C. The trial was conducted for 6 min. The total period of immobility was manually measured during the last 4 min of the test. A mouse was considered immobile when it remained floating with only slight movements to keep its head above water.

C57Bl/6J mice [5] = conditions: 10 μg/kg i.v. once a day for 4 days, test on day 5, mean ± SEM; saline 305.00 ± 62.47 s
Description: Naïve male C57Bl/6J mice from 7 to 9 weeks old were used in all experiments (Janvier Laboratory, Saint Berthevin, France). Mice were housed (10 animals per cage) under a 12:12 light–dark cycle (light on at 8:00 am) in a ventilated room at a temperature of 22 ± 1 °C. Animals had free access to water and food (A03; SAFE, Augy, France).
as §4
The NSF paradigm is a 2-day test protocol. On day 1, mice were deprived from food. On day 2, mice were placed in a highly brightly lit area, in a plastic box (45 × 45 × 20 cm), with a floor covered with wooden bedding. The test was carried out during a 10-min period. During this time, the latency to eat was measured. During the test, a single pellet of food was placed in the center of the box, on a white platform.

human TREK-1 channel [6] = target: T1, human TREK-1 channel; conditions: h-TREK-1/HEK cells, current at 0 mV, n = 10 to 12
Description: as §1, §2, §3

C57Bl/6J mice [7] = conditions: 10^-5 M in 100 μL bolus i.v. 30 min before the test, monitored 24 h, n = 8 per group
Description: Locomotor activity was monitored individually for 24 h using an infrared photobeam activity monitoring system (Imetronic, Pessac, France), which measured consecutive horizontal beam breaks. […] Locomotor activity was defined as breaking of consecutive photobeams. Movements were recorded and totalized for each 10-min time section. Six periods were pooled to obtain data for 1 h of time. Different movements were monitored: the coming-and-going between the back and the front of the cage, climbing, and other movements in the back or the front of the cage. Mice were kept under standard laboratory conditions: 12:12 light–dark cycle with free access to food and water during the experiment.
Mice were injected 30 min before to be placed in an infrared photobeam activity monitoring system. Spontaneous locomotor activity was monitored individually for 24 consecutive hours. The number of coming-and-going (a), climbing (b), and total movements except climbing (c) were monitored for each mouse for 10 min section and pooled by 6 to obtain values corresponding to 1 h.

hERG channel (IKR) = hERG channel (IKR) (Homo sapiens, UniProt Q12809); conditions: 10 μM
Description: HEK-293 native cells were grown in serum in an atmosphere of 95 % air/5 % CO2 in Dulbecco’s modified Eagle’s medium supplemented with 10 % (v/v) heat-inactivated fetal bovine containing 1 % (v/v) of penicillin/ streptomycin and Glutamax X 1. Cells were plated at a density of 20,000 cells/35 mm dish, and after 24 h, cells were transfected using the Jet PEI method (Polyplus, France) with 25 ng/35 mm dish of p-IRES-HERG channel vector. Patch clamp experiments were carried out 48 h after transfection.
All electrophysiological recordings were performed in whole cell configuration of the patch clamp technique except for IKS measures which were obtained by using the patch clamp perforated configuration (amphotericin B 0.9 mg/mL in the pipette medium) (Moha ou Maati et al. [2011b]). Each current was evaluated by using a RK 400 patch clamp amplifier (Axon Instrument, USA), low-pass filtered at 3 kHz, and digitized at 10 kHz using a 12-bit analog-to-digital converter digidata (1322 series, Axon Instrument, USA). All current amplitudes are expressed in current densities. Results are expressed as mean ± standard error of the mean (SEM). […] The bath solution contained (in mM) 150 NaCl, 5 KCl, 3 MgCl2, 1 CaCl2, and 10 4-(2-hydroxyethyl)piperazine 1- ethane sulfonic acid (HEPES) adjusted to pH 7.4 with NaOH. The pipette solution contained (in mM) 155 KCl, 3 MgCl2, 5 EGTA, and 10 HEPES adjusted to pH 7.2 with KOH. […] Stimulation protocols and data acquisition were carried out using a microcomputer (Dell Pentium) with a commercial software and hardware (pClamp 8.2). Currents were recorded by voltage clamp steps to membrane potentials of −100 to +60 mV in 20-mV steps applied from a holding potential of −80 mV. The duration of depolarization pulses was 825 ms, and the pulse cycling rate was 5 s. […] Cells were continuously superfused with microperfusion system.
Tail currents were generated by repolarization to −40 mV. […] The amplitudes of IKS and IKR currents were calculated at both the end of the first pulse and the peak of the tail pulse.

C57Bl/6J mice [8] = conditions: 10 μg/kg i.v. for four consecutive days, hippocampal dentate gyrus
Description: One day after 5-bromo-2′-deoxyuridine (BrdU) injections, 12 mg per animal divided in four bolus of 300 μL injected every 2 h, mice were anesthetized with isoflurane and transcardially perfused with 20 mL of NaCl 0.9 % followed by 20 mL paraformaldehyde 4 %/NaCl 0.9 %. By using a vibratome (Leica), brains were cut into 40-μm sections, throughout the entire hippocampus. […] For each BrdU labeling, slices were first incubated with a mouse monoclonal anti-BrdU antibody (1/8,000, Becton Dickinson). For chromogenic immunodetection, sections were incubated during 2 h in biotin-conjugated species-specific secondary antibodies (1/400; Vector laboratories) followed by a peroxidase-avidin complex solution, to amplify the reaction. The peroxidase activity of immune complex was visualized with DAB staining using the VectaStain ABC kit according to the manufacturer’s protocol (Vector Laboratories).

human-IKS current, sequence (P51787 whole entry): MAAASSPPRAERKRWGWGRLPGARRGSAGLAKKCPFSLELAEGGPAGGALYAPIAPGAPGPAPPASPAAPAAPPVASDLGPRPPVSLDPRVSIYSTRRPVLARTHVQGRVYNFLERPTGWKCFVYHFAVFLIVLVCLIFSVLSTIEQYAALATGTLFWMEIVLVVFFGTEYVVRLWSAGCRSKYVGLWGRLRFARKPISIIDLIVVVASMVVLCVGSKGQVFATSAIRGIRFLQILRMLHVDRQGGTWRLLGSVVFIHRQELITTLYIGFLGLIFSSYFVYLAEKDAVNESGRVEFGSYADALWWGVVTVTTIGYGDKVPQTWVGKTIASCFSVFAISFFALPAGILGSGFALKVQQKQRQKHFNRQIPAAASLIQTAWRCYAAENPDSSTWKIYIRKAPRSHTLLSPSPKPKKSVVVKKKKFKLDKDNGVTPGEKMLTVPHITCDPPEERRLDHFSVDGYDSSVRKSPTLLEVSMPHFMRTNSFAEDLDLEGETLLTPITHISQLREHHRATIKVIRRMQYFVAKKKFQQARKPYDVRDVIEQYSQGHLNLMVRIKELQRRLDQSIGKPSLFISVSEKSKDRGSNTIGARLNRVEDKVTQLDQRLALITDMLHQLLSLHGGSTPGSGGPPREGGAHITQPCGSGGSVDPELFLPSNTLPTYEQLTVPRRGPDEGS
hERG channel (IKR), sequence (Q12809 whole entry): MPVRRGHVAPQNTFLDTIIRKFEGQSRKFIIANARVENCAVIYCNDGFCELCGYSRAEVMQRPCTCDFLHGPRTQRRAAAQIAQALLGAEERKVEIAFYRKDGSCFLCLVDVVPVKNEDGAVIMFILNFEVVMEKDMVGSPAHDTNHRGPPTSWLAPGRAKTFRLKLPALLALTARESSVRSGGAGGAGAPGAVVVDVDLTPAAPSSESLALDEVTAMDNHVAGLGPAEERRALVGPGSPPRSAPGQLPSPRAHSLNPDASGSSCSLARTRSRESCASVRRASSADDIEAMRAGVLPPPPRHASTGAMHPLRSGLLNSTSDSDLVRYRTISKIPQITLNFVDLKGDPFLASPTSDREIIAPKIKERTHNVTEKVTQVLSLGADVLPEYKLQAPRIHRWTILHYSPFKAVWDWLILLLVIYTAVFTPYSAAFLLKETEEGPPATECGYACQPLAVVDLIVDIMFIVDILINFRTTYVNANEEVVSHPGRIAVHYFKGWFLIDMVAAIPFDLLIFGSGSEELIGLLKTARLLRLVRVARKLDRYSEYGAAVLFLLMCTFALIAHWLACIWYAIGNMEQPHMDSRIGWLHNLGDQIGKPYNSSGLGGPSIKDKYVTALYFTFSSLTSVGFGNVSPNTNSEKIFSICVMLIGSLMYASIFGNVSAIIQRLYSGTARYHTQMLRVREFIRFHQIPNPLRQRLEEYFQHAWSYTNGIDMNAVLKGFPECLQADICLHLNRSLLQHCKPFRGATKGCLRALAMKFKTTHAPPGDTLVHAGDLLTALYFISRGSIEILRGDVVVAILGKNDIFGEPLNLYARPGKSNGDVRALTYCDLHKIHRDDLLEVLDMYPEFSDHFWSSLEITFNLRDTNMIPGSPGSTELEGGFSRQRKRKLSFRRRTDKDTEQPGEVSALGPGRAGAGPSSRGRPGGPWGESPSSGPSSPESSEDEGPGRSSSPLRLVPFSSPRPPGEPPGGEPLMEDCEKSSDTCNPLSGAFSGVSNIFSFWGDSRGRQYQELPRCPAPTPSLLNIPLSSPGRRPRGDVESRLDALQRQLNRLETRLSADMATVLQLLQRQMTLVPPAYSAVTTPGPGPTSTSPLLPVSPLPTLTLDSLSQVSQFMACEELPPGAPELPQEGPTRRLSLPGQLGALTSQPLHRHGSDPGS
T1 sequence (O95069 whole entry): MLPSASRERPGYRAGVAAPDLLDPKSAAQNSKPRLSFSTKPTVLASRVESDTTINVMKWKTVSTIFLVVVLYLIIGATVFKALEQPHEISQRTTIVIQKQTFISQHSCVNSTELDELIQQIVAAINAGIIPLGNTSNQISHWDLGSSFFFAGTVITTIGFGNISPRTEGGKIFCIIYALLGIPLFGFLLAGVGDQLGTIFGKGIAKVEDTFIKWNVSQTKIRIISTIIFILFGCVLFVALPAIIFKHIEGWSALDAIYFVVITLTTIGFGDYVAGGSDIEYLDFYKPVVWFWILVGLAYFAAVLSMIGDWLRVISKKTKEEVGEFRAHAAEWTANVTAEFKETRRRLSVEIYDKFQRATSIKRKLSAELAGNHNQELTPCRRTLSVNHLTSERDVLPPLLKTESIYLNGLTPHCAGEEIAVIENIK

Compound	IC50 (human TREK-1 channel [1]) [nM]	FST immobility time, subchronic treatment (C57Bl/6J mice [4]) [s]	FST immobility time, acute treatment (C57Bl/6J mice [4]) [s]	FST immobility time 1 h after injection (action duration) (C57Bl/6J mice [4]) [s]	FST immobility time 16 h after injection (action duration) (C57Bl/6J mice [4]) [s]	NSF latency to feed, subchronic treatment (C57Bl/6J mice [5]) [s]	TREK-1 blockade at 100 nM compared with spadin (in words) (human TREK-1 channel [6])	further results
CC[C@@H](C)[C@@H](NC(=O)CNC(=O)[C@H](NC(=O)[C@@H](CO)NC(=O)[C@@H](Cc1c[nH]c2ccccc12)NC(=O)CNC(=O)[C@@H](CC(C)C)NC(=O)[C@@H](CCCNC(=N)N)NC(C)=O)C(C)C)C(=O)N1CCC[C@@H]1C(=O)NCC(=O)N[C@H](CO)C(=O)N[C@H](Cc1c[nH]c2ccccc12)C(=O)N[C@H](CCCNC(=N)N)C(=O)N1CCC[C@@H]1C(=O)N[C@H](CC(C)C)C(=O)N1CCC[C@@H]1C(=O)N[C@H](C)C(N)=O [analog 3] (Ac-[dR][dL]G[dW][dS][dV]G[dI][dP]G[dS][dW][dR][dP][dL][dP][dA]-NH2)	11.5 ± 0.59	114.9 ± 9.82	135.10 ± 8.11	123.4 ± 7.0	129.6 ± 12.7	143.88 ± 23.42	increased blockade effect when compared to spadin	Effect on IKS current (human-IKS current; HEK-IKS cells): did not modify currents; IKS tail current density at 0 mV in the presence of the analog (human-IKS current; n = 5, mean ± SEM, control 8.33 ± 1.78 pA/pF): 8.33 ± 2.06 pA/pF; IKS current density at 0 mV, end of pulse, in the presence of the analog (human-IKS current; n = 5, mean ± SEM, control 17.65 ± 3.84 pA/pF): 17.58 ± 4.03 pA/pF; Tail withdrawal time (C57Bl/6J mice [2]): 11.32 ± 1.04 s; Effect on kaïnate-triggered seizures, 1 μg/kg (C57Bl/6J mice [3]; 1 μg/kg i.v., n = 10): no protective effect; Effect on kaïnate-triggered seizures, 10 μg/kg (C57Bl/6J mice [3]; 10 μg/kg i.v., n = 10, monitored 2 h): important protective effect; Number of mice reaching the two less severe seizure stages (immobility, head or neck movements) (C57Bl/6J mice [3]; 10 μg/kg i.v., n = 10, saline: at least 9 among 10, five died): two mice among 10; Locomotor activity versus saline-treated mice (coming-and-going, climbing, total movements) (C57Bl/6J mice [7]): no significant difference; Effect on IKR current (hERG channel (IKR); HEK cells expressing hERG): did not modify currents; IKR tail current density at 0 mV in the presence of the analog (hERG channel (IKR); n = 5, mean ± SEM, control 204.59 ± 34.18 pA/pF): 212.99 ± 38.38 pA/pF; IKR current density at 0 mV, end of first pulse, in the presence of the analog (hERG channel (IKR); n = 5, mean ± SEM, control 225.14 ± 33.09 pA/pF): 224.48 ± 35.94 pA/pF; Amount recovered in a half brain (10 nmol i.v. (100 μL of 100 μM, caudal vein), 30 min after injection, acidic extraction, RP18 HPLC, standard curve 50-200 pmol, estimated): ~100 pmol; Yield to cross the blood-brain-barrier (10 nmol i.v., 30 min after injection, amount per brain relative to injected amount): ~2%; Amount recovered per brain (10 nmol i.v., 30 min after injection, extrapolated from a half brain): ~200 pmol; HPLC peak in brain extract 60 min after injection (10 nmol i.v., 60 min after injection): disappeared after 60 min
CC[C@H](C)[C@H](NC(=O)[C@@H]1CCCN1C(=O)CNC(=O)[C@H](CO)NC(=O)[C@H](Cc1c[nH]c2ccccc12)NC(=O)[C@H](CCCNC(=N)N)NC(=O)[C@@H]1CCCN1C(=O)[C@H](CC(C)C)NC(=O)[C@@H]1CCCN1C(=O)[C@H](C)NC(=O)[C@H](C)NC(=O)[C@@H]1CCCN1C(=O)[C@@H]1CCCN1C(=O)[C@@H]1CCCN1C(=O)[C@@H]1CCCN1C(=O)[C@H](C)NC(=O)[C@H](CC(=O)O)NC(=O)[C@H](CC(C)C)NC(=O)[C@H](CCCNC(=N)N)NC(=O)[C@H](CC(=O)O)NC(=O)[C@H](CCC(N)=O)NC(C)=O)C(=O)NCC(=O)N[C@H](C(=O)N[C@@H](CO)C(=O)N[C@@H](Cc1c[nH]c2ccccc12)C(=O)NCC(=O)N[C@@H](CC(C)C)C(=O)N[C@@H](CCCNC(=N)N)C(N)=O)C(C)C [analog 7]	–	–	–	–	–	–	bad inhibitor of TREK-1 channels	–
CC[C@@H](C)[C@@H](NC(=O)CNC(=O)[C@H](NC(=O)[C@@H](CO)NC(=O)[C@@H](Cc1c[nH]c2ccccc12)NC(=O)CNC(=O)[C@@H](CC(C)C)NC(=O)[C@@H](CCCNC(=N)N)NC(C)=O)C(C)C)C(=O)N1CCC[C@@H]1C(=O)NCC(=O)N[C@H](CO)C(=O)N[C@H](Cc1c[nH]c2ccccc12)C(=O)N[C@H](CCCNC(=N)N)C(=O)N1CCC[C@@H]1C(=O)N[C@H](CC(C)C)C(=O)N1CCC[C@@H]1C(=O)N[C@H](C)C(=O)N[C@H](C)C(=O)N1CCC[C@@H]1C(=O)N1CCC[C@@H]1C(=O)N1CCC[C@@H]1C(=O)N1CCC[C@@H]1C(=O)N[C@H](C)C(=O)N[C@H](CC(=O)O)C(=O)N[C@H](CC(C)C)C(=O)N[C@H](CCCNC(=N)N)C(=O)N[C@H](CC(=O)O)C(=O)N[C@H](CCC(N)=O)C(N)=O [analog 8] (Ac-[dR][dL]G[dW][dS][dV]G[dI][dP]G[dS][dW][dR][dP][dL][dP][dA][dA][dP][dP][dP][dP][dA][dD][dL][dR][dD][dQ]-NH2)	9.95 ± 0.85	124.1 ± 10.53	83.60 ± 9.01	121.7 ± 5.2	129.1 ± 12.0	167.00 ± 22.96	increased blockade effect when compared to spadin	Tail withdrawal time (C57Bl/6J mice [2]): 13.85 ± 0.72 s
Ac-APLPRWSGPIGVSWGLR-NH2 [analog 2]	60 ± 0.41	–	–	–	–	–	–	–
Ac-APPPPAAPLPRWSGPIGVSWGLR-NH2 [analog 9]	–	–	–	–	–	–	inhibitory effect close to that of spadin	–
Ac-QDRLDAPPPPAAPLPRWSGPIGVSWGLRAAAAGGAFPRGGRWRR-NH2 [analog 11]	–	–	–	–	–	–	reduced blocking effect on TREK-1 channels	–
Ac-[dR][dR][dW][dR]GG[dR][dP][dF][dA]GG[dA][dA][dA][dA][dR][dL]G[dW][dS][dV]G[dI][dP]G[dS][dW][dR][dP][dL][dP][dA][dA][dP][dP][dP][dP][dA][dD][dL][dR][dD][dQ]-NH2 [analog 12]	–	–	–	–	–	–	did not display a better efficacy	–
spadin [reference compound]	–	123.70 ± 7.16	107.40 ± 5.05	102.4 ± 6.2	175.3 ± 7.5	151.11 ± 17.70	–	FST immobility time 3 h after injection (action duration) (C57Bl/6J mice [4]; 3 h after injection (order of values follows order of times), saline 170.3 ± 4.5 s): 113.2 ± 5.0 s; FST immobility time 7 h after injection (action duration) (C57Bl/6J mice [4]; 7 h after injection (order of values follows order of times), saline 170.3 ± 4.5 s): 150.8 ± 6.5 s; Biological half-life time measured by the FST (C57Bl/6J mice [4]; from loss of FST efficacy with time after injection): around 6 h; Increase of the number of BrdU-positive cells in SGZ versus saline (factor) (C57Bl/6J mice [8]): ≥ 2
